Data from US20240150282A1, “NOVEL CRYSTALLINE COMPOUND OF SIPONIMOD HEMIFUMARATE” (OLON S.P.A., priority 2021, published 2024).

Legend:
[1] = Stability of the crystalline form during isolation and drying; format: physicochemical
Description: According to another of its aspects, subject-matter of the invention is a process for the preparation of the NP01 Form of Siponimod Hemifumarate, comprising carrying out the steps (a) and (b) stated above for the preparation of the NP04 Form.

[2] = Stability assays of the NP04 Form (storage, humidity, shredding, compression); format: physicochemical
Procedure: Stability assays of the NP04 Form
Aliquots of the compound obtained from Example 1 were subjected to the following assays: • closed in a sealed bottle for 8 days • at 25° C. with 100% relative humidity for 7 days • at 25° C. with 60% relative humidity for 7 days • at 60° C. with 75% relative humidity for 3 days • shredding treatment • Compression test under 1, 2 and 3 tons

Row | stability of the crystalline form [1] | solid form stability (form recovered after treatment) ([2]; 25° C. with 60% relative humidity for 7 days) | solid form stability (form recovered after treatment) ([2]; 25° C. with 100% relative humidity for 7 days) | solid form stability (form recovered after treatment) ([2]; 60° C. with 75% relative humidity for 3 days) | solid form stability (form recovered after treatment) ([2]; closed in a sealed bottle for 8 days) | solid form stability (form recovered after treatment) ([2]; compression test under 1, 2 and 3 tons) | solid form stability (form recovered after treatment) ([2]; shredding treatment) | Structure (SMILES)
1 | unstable and converts to the NP04 Form | – | – | – | – | – | – | CCc1cc(/C(C)=N/OCc2ccc(C3CCCCC3)c(C(F)(F)F)c2)ccc1CN1CC(C(=O)O)C1 [NP01 Form, Siponimod Hemifumarate]
2 | – | stable | stable | stable | stable | stable | stable | CCc1cc(/C(C)=N/OCc2ccc(C3CCCCC3)c(C(F)(F)F)c2)ccc1CN1CC(C(=O)O)C1 [NP04 Form, Siponimod Hemifumarate]
